Measurements published in US9221822B2, “Thiazolopyrimidine modulators as immunosuppressive agents” (Katholieke Universiteit Leuven, K.U.Leuven R&D, priority 2009, dated 2015).

System: Human peripheral blood mononuclear cells (PBMCs) as Responder cells, RPMI 1788 Stimulator cells
Assay: Mixed Lymphocyte Reaction (MLR) test
Assay type: cell-based
Conditions: Homo sapiens, RPMI-1788, lowest concentration giving 50% inhibition of the MLR; 6 days coculture, 3H-thymidine incorporation
Method in brief: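 Proliferation was read as cpm after a 1 μCi ^3H-thymidine pulse on day 5 and harvest 18 h later, then expressed as % inhibition relative to an MLR without compound. The 6-day triplicate cocultures combined 0.12×10^6 Ficoll-isolated human PBMCs with 0.045×10^6 mitomycin C-inactivated RPMI 1788 cells in RPMI 1640 with 10% FCS.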

Structure (SMILES) | IC50 [nM]
Nc1nc(N2CCN(C(=O)COc3ccc(Cl)cc3)CC2)c2nc(-c3ccc(Cl)c(Cl)c3)sc2n1 [Example 116, 5-amino-7-[4-(4-chlorophenoxyacetyl)piperazin-1-yl]-2-(3,4-dichlorophenyl)thiazolo[5,4-d]pyrimidine] | 5290
COc1ccc(OCC(=O)N2CCN(c3nc(N)nc4sc(CCc5ccc(C)cc5)nc34)CC2)cc1 [Example 259, 1-(4-(5-amino-2-(4-methylphenethyl)thiazolo[5,4-d]pyrimidin-7-yl)piperazin-1-yl)-2-(4-methoxyphenoxy)ethanone] | 960
Cc1cccc(NC(=O)N2CCN(c3nc(N)nc4sc(CCc5ccc(F)cc5)nc34)CC2)c1 [Example 133, 5-amino-2-[2-(4-fluorophenyl)ethyl]-7-(4-m-tolylcarbamoylpiperazin-1-yl)-thiazolo[5,4-d]pyrimidine] | > 10000
Cc1cccc(NC(=O)N2CCN(c3nc(N)nc4sc(-c5ccc(F)cc5)nc34)CC2)c1 [Example 43, 4-(5-amino-2-(4-fluorophenyl)thiazolo[5,4-d]pyrimidin-7-yl)-N-m-tolylpiperazine-1-carboxamide] | 300
Nc1nc(N2CCN(CC(=O)N3CCOCC3)CC2)c2nc(-c3ccc(F)cc3)sc2n1 [Example 38, 2-(4-(5-amino-2-(4-fluorophenyl)thiazolo[5,4-d]pyrimidin-7-yl)piperazin-1-yl)-1-morpholinoethanone] | 4800
COc1ccc(OCC(=O)N2CCN(c3nc(N)nc4sc(CCCCc5ccc(F)cc5)nc34)CC2)cc1 [Example 293, 1-(4-(5-amino-2-(4-(4-fluorophenyl)butyl)thiazolo[5,4-d]pyrimidin-7-yl)piperazin-1-yl)-2-(4-methoxyphenoxy)ethanone] | 930
Cc1cccc(NC(=O)N2CCN(c3nc(N)nc4sc(-c5ccc(F)cc5)cc34)CC2)c1 [Example 359, 4-(2-amino-6-(4-fluorophenyl)thieno[2,3-d]pyrimidin-4-yl)-N-m-tolylpiperazine-1-carboxamide] | 2800
COc1cccc(C(=O)N2CCN(c3nc(N)nc4[nH]c(-c5ccc(F)cc5)nc34)CC2)c1 [Example 402, (4-(2-amino-8-(4-fluorophenyl)-9H-purin-6-yl)piperazin-1-yl)(3-methoxyphenyl)methanone] | > 10000
Nc1nc(N2CCN(Cc3ccc(F)cc3)CC2)c2nc(-c3ccc(F)cc3)[nH]c2n1 [Example 418, 6-(4-(4-fluorobenzyl)piperazin-1-yl)-8-(4-fluorophenyl)-9H-purin-2-amine] | 9860
CC(C)(Oc1ccc(Cl)cc1)C(=O)N1CCN(c2nc(N)nc3sc(-c4cccnc4)nc23)CC1 [Example 274, 1-(4-(5-amino-2-(pyridin-3-yl)thiazolo[5,4-d]pyrimidin-7-yl)piperazin-1-yl)-2-(4-chlorophenoxy)-2-methylpropan-1-one] | > 10000
N#Cc1ccc(NC(=O)N2CCN(c3nc(N)nc4sc(Cc5ccc(F)cc5)nc34)CC2)cc1 [Example 232, 4-(5-amino-2-(4-fluorobenzyl)thiazolo[5,4-d]pyrimidin-7-yl)-N-(4-cyanophenyl)piperazine-1-carboxamide] | 860
Cc1cccc(N2CCN(c3nc(N)nc4sc(-c5ccc(F)cc5)nc34)CC2)c1 [Example 35, 2-(4-fluorophenyl)-7-(4-m-tolylpiperazin-1-yl)-thiazolo[5,4-d]pyrimidin-5-amine] | > 10000
Nc1nc(N2CCN(C(=O)COc3cccc(Cl)c3)CC2)c2nc(-c3ccc(F)cc3)sc2n1 [Example 214, 1-(4-(5-amino-2-(4-fluorophenyl)thiazolo[5,4-d]pyrimidin-7-yl)piperazin-1-yl)-2-(3-chlorophenoxy)ethanone] | 121
Nc1nc(N2CCN(CC(=O)Nc3cccnc3)CC2)c2nc(-c3ccc(F)cc3)[nH]c2n1 [Example 412, 2-(4-(2-amino-8-(4-fluorophenyl)-9H-purin-6-yl)piperazin-1-yl)-N-(pyridin-3-yl)acetamide] | 8610
Cc1cccc(NC(=O)N2CCN(c3nc(N)nc4sc(-c5ccccc5)cc34)CC2)c1 [Example 330, 4-(2-amino-6-phenylthieno[2,3-d]pyrimidin-4-yl)-N-m-tolylpiperazine-1-carboxamide] | 930
O=C(COc1ccc(Cl)cc1)N1CCN(c2ncnc3sc(-c4ccc(F)cc4)cc23)CC1 [Example 312, 2-(4-chlorophenoxy)-1-(4-(6-(4-fluorophenyl)thieno[2,3-d]pyrimidin-4-yl)piperazin-1-yl)ethanone] | 6350
Nc1nc(N2CCN(C(=O)Nc3ccc(F)cc3F)CC2)c2nc(-c3ccc(F)cc3)sc2n1 [Example 217, 4-(5-amino-2-(4-fluorophenyl)thiazolo[5,4-d]pyrimidin-7-yl)-N-(2,4-difluorophenyl)piperazine-1-carboxamide] | 345
Nc1nc(N2CCN(C(=O)COc3ccc(Cl)cc3Cl)CC2)c2nc(-c3ccc(F)cc3)sc2n1 [Example 212, 1-(4-(5-amino-2-(4-fluorophenyl)thiazolo[5,4-d]pyrimidin-7-yl)piperazin-1-yl)-2-(2,4-dichlorophenoxy)ethanone] | 375
Nc1nc(N2CCN(C(=O)COc3ccc(OC(F)(F)F)cc3)CC2)c2nc(-c3cccnc3)sc2n1 [Example 273, 1-(4-(5-amino-2-(pyridin-3-yl)thiazolo[5,4-d]pyrimidin-7-yl)piperazin-1-yl)-2-(4-trifluoromethoxyphenoxy)ethanone] | 45
Nc1nc(N2CCN(C(=O)COc3ccc(Cl)cc3)CC2)c2nc(-c3ccc(F)cc3)[nH]c2n1 [Example 389, 1-(4-(2-amino-8-(4-fluorophenyl)-9H-purin-6-yl)piperazin-1-yl)-2-(4-chlorophenoxy)ethanone] | 810
Nc1nc(N2CCN(C(=O)COc3ccc(Cl)cc3)CC2)c2nc(C3CCCCC3)sc2n1 [Example 120, 5-amino-7-[4-(4-chlorophenoxyacetyl)piperazin-1-yl]-2-cyclohexylthiazolo[5,4-d]pyrimidine] | 830
COc1ccc(OCC(=O)N2CCN(c3nc(N)nc4sc(CCc5cccc(OC)c5)nc34)CC2)cc1 [Example 253, 1-(4-(5-amino-2-(3-methoxyphenethyl)thiazolo[5,4-d]pyrimidin-7-yl)piperazin-1-yl)-2-(4-methoxyphenoxy)ethanone] | 710
O=C(O)c1nc(N2CCN(C(=O)COc3ccc(Cl)cc3)CC2)c2cc(-c3ccc(F)cc3)sc2n1 [Example 357, 4-(4-(2-(4-chlorophenoxy)acetyl)piperazin-1-yl)-6-(4-fluorophenyl)thieno[2,3-d]pyrimidine-2-carboxylic acid] | > 10000
Nc1nc(N2CCN(S(=O)(=O)Cc3ccccc3)CC2)c2nc(-c3ccc(F)cc3)[nH]c2n1 [Example 405, 6-(4-(benzylsulfonyl)piperazin-1-yl)-8-(4-fluorophenyl)-9H-purin-2-amine] | > 10000
Nc1nc(N2CCN(C(=O)COc3ccc(Cl)cc3)CC2)c2nc(CCc3ccc(F)cc3)oc2n1 [Example 172, 1-(4-(5-amino-2-(4-fluorophenethyl)oxazolo[5,4-d]pyrimidin-7-yl)piperazin-1-yl)-2-(4-chlorophenoxy)ethanone] | 800
Cc1ccc(NC(=O)N2CCN(c3nc(N)nc4sc(-c5ccc(F)cc5)nc34)CC2)cc1 [Example 42, 4-(5-amino-2-(4-fluorophenyl)-thiazolo[5,4-d]pyrimidin-7-yl)-N-p-tolylpiperazine-1-carboxamide] | 700
